Here are results for 16 molecules from patent US8741894B2, “Arylsulfonamide CCR3 antagonists” (Axikin Pharmaceuticals, Inc., priority 2010, dated 2014).

The test addresses T1, CCR3 receptor (UniProt P51677).
T1 sequence (P51677 1-355): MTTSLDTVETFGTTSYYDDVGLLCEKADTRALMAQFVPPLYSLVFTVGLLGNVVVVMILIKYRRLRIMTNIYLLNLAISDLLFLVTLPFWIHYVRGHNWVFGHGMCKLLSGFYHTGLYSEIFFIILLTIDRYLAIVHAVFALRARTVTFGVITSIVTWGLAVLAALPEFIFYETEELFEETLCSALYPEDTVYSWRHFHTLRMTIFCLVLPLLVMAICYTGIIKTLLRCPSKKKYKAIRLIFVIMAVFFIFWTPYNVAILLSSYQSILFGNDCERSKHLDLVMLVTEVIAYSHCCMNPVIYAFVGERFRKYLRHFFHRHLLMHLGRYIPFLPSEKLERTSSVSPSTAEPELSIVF
Briefly: CCR3 Receptor Binding Assay ([125I]-labeled human eotaxin/CCL11 displacement on cells). The conditions noted are these: 0.1 nM [125I]-labeled human eotaxin/CCL11, 60 min at room temperature. The procedure: Cells were washed once with PBS and resuspended in a binding buffer (25 mM HEPES pH 7.6, 5 mM MgCl2, 1 mM CaCl2, 0.5% BSA, 0.1% NaN3). […] of cell suspension (2×10^5 cells/well) and 0.1 nM [^125I]-labeled human eotaxin/CCL11 (2000 Ci/mmol specific activity) were mixed in a 96-well U-bottom polypropylene plate, and incubated for 60 min at room temperature for the binding reaction. The cell suspension was then transferred to a filtration plate (#MAFB, Millipore), and washed 3 times with the binding buffer containing 0.5 M NaCl, scintillant added, and the radioactivity was counted on a TopCount (Packard). For the determination of non-specific binding, the cell suspension and [^125I]-labeled human eotaxin/CCL11 were incubated in the presence of 500 nM of unlabeled human eotaxin/CCL11. See, lino et al., “Molecular cloning and functional characterization of cynomolgus monkey (Macaca fascicularis) CC chemokine receptor, CCR3,” Cytokine 2002, 19, 276-286.
The biological results are summarized in Table 1, wherein A represents a value no greater than 50 nM, and B represents a value greater than 50 nM but no greater than 500 nM, C represents a value greater than 500 nM but no greater than 5 μM; and D represents a value greater than 5 μM.
The Ki is a measure of affinity in units of concentration, obtained from inhibition or displacement. A lower Ki goes with a stronger hold on the target. As for `N#Cc1ccc(Oc2cc(Cl)cc(Cl)c2)c(S(=O)(=O)NC2CCN(C(=O)Nc3cccc(F)c3)CC2)c1` [Compound 44], the inhibition constant (Ki) was 50 to 500 nM. Under `N#Cc1ccc(Oc2cc(Cl)cc(Cl)c2)c(S(=O)(=O)NC2CCN(S(=O)(=O)c3cccc(F)c3)CC2)c1` [Compound 32, 5-cyano-2-(3,5-dichlorophenoxy)-N-(1-(3-fluorophenylsulfonyl)piperidin-4-yl)benzenesulfonamide] stands over 5000 nM. In the case of `Cc1cc(C)cc(Sc2ccc(C#N)cc2S(=O)(=O)NC2CCN(C(=O)OC(C)(C)C)CC2)c1` [Compound 23] it was 500 to 5000 nM; in that of `N#Cc1ccc(Oc2cc(Cl)cc(Cl)c2)c(S(=O)(=O)N2CCC(NC(=O)NCCN3CCC(F)CC3)CC2)c1` [Compound 50, 1-(1-(5-cyano-2-(3,5-dichlorophenoxy)phenylsulfonyl)piperidin-4-yl)-3-(2-(4-fluoropiperidin-1-yl)ethyl)urea], at most 50 nM.

In turn, `N#Cc1ccc(Oc2cc(Cl)cc(Cl)c2)c(S(=O)(=O)NC2CCN(C(=O)c3ccc(C(F)(F)F)cc3)CC2)c1` [Compound 34] yielded a Ki of over 5000 nM. Under `CC(C)(C)OC(=O)N1CCC(NS(=O)(=O)c2cc(C#N)ccc2Sc2cc(Cl)cc(Cl)c2)CC1` [Compound 45] stands 500 to 5000 nM; under `[2H]c1c([2H])c(Oc2cc(Cl)cc(Cl)c2)c(S(=O)(=O)N2CCC(NC(=O)NCCN3C([2H])([2H])C([2H])([2H])OC([2H])([2H])C3([2H])[2H])CC2)c([2H])c1C#N` [Compound 54, 1-(1-(5-cyano-3,4,6-trideutero-2-(3,5-dichlorophenoxy)phenylsulfonyl)piperidin-4-yl)-3-(2-(2,2,3,3,5,5,6,6-octadeutero-morpholino)ethyl)urea], at most 50 nM. Molecule `N#Cc1ccc(Oc2cc(Cl)cc(Cl)c2)c(S(=O)(=O)N2CCC(NC(=O)NCCN3CCOCC3)CC2)c1` [Compound 22, 1-(1-(5-cyano-2-(3,5-dichlorophenoxy)phenylsulfonyl)piperidin-4-yl)-3-(2-morpholinoethyl)urea] displayed a Ki of at most 50 nM. For the molecule `N#Cc1ccc(Oc2cc(Cl)cc(Cl)c2)c(S(=O)(=O)N2CCC(NC(=O)NCCN3CCSCC3)CC2)c1` [Compound 47, 1-(1-(5-cyano-2-(3,5-dichlorophenoxy)phenylsulfonyl)piperidin-4-yl)-3-(2-thiomorpholinoethyl)urea], the Ki was at most 50 nM. In the case of `N#Cc1ccc(Oc2cc(Cl)cc(Cl)c2)c(S(=O)(=O)N2CCC(NC(=O)NCCN3CCNCC3)CC2)c1` [Compound 49, 1-(1-(5-cyano-2-(3,5-dichlorophenoxy)phenylsulfonyl)piperidin-4-yl)-3-(2-(piperazin-1-yl)ethyl)urea] it was at most 50 nM; in that of `CC(C)C(=O)N1CCC(NS(=O)(=O)c2cc(C#N)ccc2Oc2cc(Cl)cc(Cl)c2)CC1` [Compound 39], over 5000 nM; in that of `N#Cc1ccc(Oc2cc(Cl)cc(Cl)c2)c(S(=O)(=O)NC2CCN(C(=O)c3ccccc3)CC2)c1` [Compound 35], over 5000 nM. Under `CN1CCN(CCNC(=O)NC2CCN(S(=O)(=O)c3cc(C#N)ccc3Oc3cc(Cl)cc(Cl)c3)CC2)CC1` [Compound 51, 1-(1-(5-cyano-2-(3,5-dichlorophenoxy)phenylsulfonyl)piperidin-4-yl)-3-(2-(4-methylpiperazin-1-yl)ethyl)urea] stands at most 50 nM; under `Cc1cc(C)cc(Oc2ccc(C#N)cc2S(=O)(=O)NC2CCN(S(C)(=O)=O)CC2)c1` [Compound 37], over 5000 nM; under `[2H]c1c([2H])c(Oc2cc(Cl)cc(Cl)c2)c(S(=O)(=O)N2CCC(NC(=O)NCC=C)CC2)c([2H])c1C#N` [Compound 53, 1-allyl-3-(1-(5-cyano-3,4,6-trideutero-2-(3,5-dichlorophenoxy)phenylsulfonyl)piperidin-4-yl)urea], at most 50 nM. In the case of `Cc1ccc(S(=O)(=O)N2CCC(NS(=O)(=O)c3cc(C#N)ccc3Oc3cc(C)cc(C)c3)CC2)cc1` [Compound 31, 5-cyano-2-(3,5-dimethylphenoxy)-N-(1-tosylpiperidin-4-yl)benzenesulfonamide] it was over 5000 nM.
